In patent US12109218B2, “Compositions of grapiprant and methods for using the same” (ARATANA THERAPEUTICS, INC., priority 2014, dated 2024):

Experiments:
Feline Onychectomy = assay: Feline onychectomy pain study FCL-12-002 (Example 9); type: in vivo, cat
Experimental: This controlled, non-GLP, laboratory study used three treatment groups: Group 1 was dosed with 20-mg grapiprant-containing Formulation […] tablets the night before (about 12 hours) and 30 minutes before surgery; Group 2 was the negative control dosed with empty gelatin capsules; and Group 3 was dosed with two 20-mg grapiprant-containing Formulation […] tablets given 30 minutes before surgery. Ten adult cats were in each group. The cats were acclimated for 7 days. Cats were divided into two sequences of 15 cats each to allow for surgeries over two days. The day of surgery was considered Day 0 for that sequence. One cat from each grapiprant-treated group was removed before surgical procedures were performed. On Day -1/0 for that sequence, all animals were administered with the appropriate test article before onychectomy. All animals received a dose of butorphanol before surgery. Following Day 2 procedures, all animals were transferred to an open feline colony. Study parameters of interest included statistical analysis of recovery, sedation, analgesia scores, and clinical pathology.

[1] = Pharmacokinetics in cats FPK-13-004 (Example 13); type: in vivo, cat; settings: for AUC(0-t) / Cmax / Tmax / half-life / Cmax/Dose: cats
Experimental: This controlled, non-GLP, laboratory study used three treatment groups: Group 1 was dosed with grapiprant at 2.5 mg/animal; Group 2 was dosed with grapiprant at 5 mg/animal; and Group 3 was dosed with grapiprant at 10 mg/animal. Each dose was administered once on Day 0. Blood samples were collected and processed to serum for pharmacokinetic (PK) analysis. Four hours post-dose, all cats were offered food. Following PK sample collections on Day 1, all animals were released to an open feline colony.
Pharmacokinetic parameters were similar between males and females within each dose group, and therefore mean values were determined by combining data from all animals.

[2] = system: complete Freund's adjuvant-induced chronic inflammatory pain response; settings: cited from earlier work
[3] = Crossover PK of tablet vs methylcellulose suspension in beagle dogs (Example 15); type: in vivo, beagle dog; settings: for Cmax / AUC(0-t) / Tmax: both sexes, dog, serum, po; for Cmax / AUC(0-t): beagle, both sexes combined; for AUC(0-t): read-out: average AUClast
Experimental: The objective of this study was to determine and compare the pharmacokinetic parameters of grapiprant in beagle dogs after single oral administration of a flavored tablet formulation and a methylcellulose suspension formulation at nominal doses of 6 mg/kg and 50 mg/kg. For this study, sixteen beagle dogs, […], were divided into two groups based on the nominal doses of grapiprant, either 6 mg/kg in Groups 3AB or 50 mg/kg in Groups 4A/B. Each group was given the appropriate oral dose in a tablet or in a methylcellulose formulation, using the crossover design as shown below at Table 19, on study Days 0 and 15. Blood samples were collected and serum was prepared, frozen, and analyzed for concentration of grapiprant.
The vehicle was 0.5% methylcellulose (400 centipoise) in water. About half a volume of distilled water was heated to about 40-50° C. Methylcellulose was weighed to give a final concentration of 0.5% (w/v), and dissolved in the heated distilled water with stirring. The flask with the methylcellulose solution was cooled immediately. The remaining distilled water was added into the flask to adjust volume. The final solution was stirred for least 30 minutes.
To prepare 1.2-mg/mL and 10-mg/mL suspensions grapiprant in the vehicle, an appropriate amount of grapiprant was added to a calibrated beaker containing 0.5% aqueous methylcellulose, and mixed using a vortex. The suspension was homogenized using a Polytron™ mixer with attached antifoam bit. A stir bar was added to the beaker, and the suspension was stirred for about 5 minutes. The stir bar was removed temporarily to adjust the volume, and the suspension was stirred for another 5 minutes before it was transferred to a labeled amber dosing container or glass beaker wrapped with foil.
The dosing suspension was prepared fresh on each day of dosing. A vortex depth of between 75% and 100% of the depth of the container containing the 500-mg suspension was achieved on both dosing days. […] Dose formulation samples were transported to the animal room before collection and were collected (while the formulations were being stirred) just before dosing the first animal of each group, and just before dosing the last animal of each group. These steps guard against the 500-mg suspension settling during transport from the formulation laboratory to the animal room.

[4] = cats, 20-mg Formulation A34 tablets before onychectomy, vs placebo control
[5] = single dose 5 mg (1 mg/kg), mean of all animals
[6] = for a 4-fold increase in dose from 0.5 to 2 mg/kg
[7] = 60 mg, beagle dogs, Day 0, 60-mg suspension
[8] = 60 mg, beagle dogs, Day 0, 60-mg tablet
[9] = 60 mg, beagle dogs, Day 15, 60-mg suspension
[10] = 60 mg, beagle dogs, Day 15, 60-mg tablet
[11] = 500 mg, beagle dogs, Day 0, 500-mg suspension
[12] = 500 mg, beagle dogs, Day 0, 500-mg tablet
[13] = 500 mg, beagle dogs, Day 15, 500-mg suspension
[14] = 500 mg, beagle dogs, Day 15, 500-mg tablet

CCc1nc2c(C)nc(C)cc2n1-c1ccc(CCNC(=O)NS(=O)(=O)c2ccc(C)cc2)cc1 [grapiprant, N-{2-[4-(2-ethyl-4,6-dimethyl-1H-imidazo[4,5-c]pyridin-1-yl)phenyl]ethyl}-N′-[(4-methylphenyl)sulfonyl]urea]
comparison of dosing regimens (Feline Onychectomy; Group 1 (about 12 hours and 30 minutes before surgery) vs Group 3 (two tablets 30 minutes before surgery)): dosing the cats with grapiprant the night before surgery was more effective | pain interventions (Feline Onychectomy; both groups of grapiprant treated animals): fewer pain interventions than placebo control | analgesia scores (Feline Onychectomy; [4]): decreased analgesia scores (reduced pain) | sedation scores (Feline Onychectomy; [4]): without an apparent effect on sedation scores | AUC(0-t) ([1]; both sexes, serum, 2.5 mg/animal, single dose 2.5 mg (0.5 mg/kg), mean of all animals): 4190 ng·h/mL | Cmax ([1]; both sexes, serum, 2.5 mg/animal, single dose 2.5 mg (0.5 mg/kg), mean of all animals, read-out: Cmax): 1060 ng/mL | Tmax ([1]; both sexes, serum, 5 mg/animal, single dose 5 mg (1 mg/kg), mean of all animals, read-out: Tmax): 1.13 h | AUC(0-t) ([1]; both sexes, serum, 10 mg/animal, single dose 10 mg (2 mg/kg), mean of all animals): 21200 ng·h/mL | Cmax ([1]; both sexes, serum, 10 mg/animal, single dose 10 mg (2 mg/kg), mean of all animals, read-out: Cmax): 4430 ng/mL | Tmax ([1]; both sexes, serum, 0.5 to 2 mg/kg, read-out: Mean Tmax values among groups): 1.13 to 1.5 h | half-life ([1]; both sexes, serum, single dose 2.5 mg (0.5 mg/kg), mean of all animals): 1.58 h | half-life ([1]; both sexes, serum, single dose 5 mg (1 mg/kg), mean of all animals): 1.13 h | half-life ([1]; both sexes, serum, single dose 10 mg (2 mg/kg), mean of all animals): 3.44 h | Cmax/Dose ([1]; single dose 2.5 mg (0.5 mg/kg), mean of all animals): 2120 kg·ng/mL/mg | Cmax [1, 5]: 2690 ng/mL | Cmax/Dose [1, 5]: 2500 kg·ng/mL/mg | Cmax/Dose ([1]; single dose 10 mg (2 mg/kg), mean of all animals): 2150 kg·ng/mL/mg | increase in AUClast [1, 6]: 5.06 fold | increase in Cmax [1, 6]: 4.18 fold | effect on chronic inflammatory pain response [2]: reverses complete Freund's adjuvant-induced chronic inflammatory pain response | fecal abnormalities ([3]; beagle dogs, single oral 60 mg or 500 mg): Slight increases in the incidence of fecal abnormalities | relative bioavailability ratio (tablet/suspension) ([3]; both dose levels, both trials): greater than 100 | Cmax [3, 7]: 4050 ng/mL | AUC(0-t) [3, 7]: 14500 ng·h/mL | Cmax [3, 8]: 5330 ng/mL | AUC(0-t) [3, 8]: 19600 ng·h/mL | Cmax [3, 9]: 3810 ng/mL | AUC(0-t) [3, 9]: 12500 ng·h/mL | Cmax [3, 10]: 6110 ng/mL | AUC(0-t) [3, 10]: 17400 ng·h/mL | Cmax [3, 11]: 76800 ng/mL | AUC(0-t) [3, 11]: 293000 ng·h/mL | Cmax [3, 12]: 96100 ng/mL | AUC(0-t) [3, 12]: 455000 ng·h/mL | Cmax [3, 13]: 74200 ng/mL | AUC(0-t) [3, 13]: 209000 ng·h/mL | Cmax [3, 14]: 101000 ng/mL | AUC(0-t) [3, 14]: 430000 ng·h/mL | Tmax ([3]; beagle dogs, Day 0, 60-mg methylcellulose suspension): 1 h | Tmax ([3]; beagle dogs, Day 15, 500-mg suspension): 1 h
